Measured values published in US10947252B2, “Inhibitors of KEAP1-Nrf2 protein-protein interaction” (Janssen Pharmaceutica NV, priority 2018, dated 2021).

System: Glo-Response ARE-luc2P HEK293 cell line
Assay: ARE luciferase reporter cell-based assay;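 also: luciferase signal tracks Nrf2 activation of the ARE once compounds disrupt KEAP1-Nrf2 binding, read with One-Glo reagent, DMSO serving as low control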
Details: average of results obtained

SMILES	EC50 (Homo sapiens, HEK293, 24 h) [nM]	EC50 (24 hours) [nM]
Cc1ccc([C@@H](c2ccn3c(C(F)(F)F)nnc3c2C)C(C)(C)C(=O)O)cc1CN1CC2(CCNCC2)Oc2ncccc2S1(=O)=O (single isomer, unassigned) [Example 336, (*S)-3-(3-((1′,1′-Dioxidospiro[piperidine-4,4′-pyrido[2,3-b][1,4,5]oxathiazepin]-2′(3′H)-yl)methyl)-4-methylphenyl)-2,2-dimethyl-3-(8-methyl-3-(trifluoromethyl)-[1,2,4]triazolo[4,3-a]pyridin-7-yl)propanoic Acid]	1830	
CCn1nnc2c(C)c(C(CC(=O)O)c3ccc(C)c(CN4C[C@H]5CCCN5c5ccccc5S4(=O)=O)c3)ccc21 (mixture of isomers) [Example 152, (R/S)-3-(3-(((R)-5,5-Dioxido-7a,8,9,10-tetrahydrobenzo[f]pyrrolo[2,1-d][1,2,5]thiadiazepin-6(7H)-yl)methyl)-4-methylphenyl)-3-(1-ethyl-4-methyl-1H-benzo[d][1,2,3]triazol-5-yl)propanoic Acid]	6.5	
Cc1cnc2c(c1)S(=O)(=O)N(Cc1cc(C(c3ccn4c(C(F)(F)F)nnc4c3C)C(C)(C)C(=O)O)ccc1C)CC1(CCOCC1)O2 (stereo not shown) [Example 17, 2,2-Dimethyl-3-(4-methyl-3-((8′-methyl-1′,1′-dioxido-2,3,5,6-tetrahydrospiro[pyran-4,4′-pyrido[2,3-b][1,4,5]oxathiazepin]-2′(3′H)-yl)methyl)phenyl)-3-(8-methyl-3-(trifluoromethyl)-[1,2,4]triazolo[4,3-a]pyridin-7-yl)propanoic Acid]	3.6	
Cc1ccc([C@H](CC(=O)O)c2ccn3c(C(F)F)nnc3c2C)cc1CN1C[C@H]2CCCCN2c2ncc(F)cc2S1(=O)=O (relative stereo) [Example 512, (*S)-3-(3-(Difluoromethyl)-8-methyl-[1,2,4]triazolo[4,3-a]pyridin-7-yl)-3-(3-(((*R)-3-fluoro-5,5-dioxido-7,7a,8,9,10,11-hexahydro-6H-dipyrido[2,1-d:2′,3′-f][1,2,5]thiadiazepin-6-yl)methyl)-4-methylphenyl)propanoic Acid]	3.21	
Cc1cnc([C@H](c2ccn3c(C(F)F)nnc3c2C)C(C)(C)C(=O)O)cc1CN1CC2(CC2)Oc2nc(OCCN3CCCCC3)c(C)cc2S1(=O)=O (single isomer, unassigned) [Example 637, (*R)-3-(3-(Difluoromethyl)-8-methyl-[1,2,4]triazolo[4,3-a]pyridin-7-yl)-2,2-dimethyl-3-(5-methyl-4-((8′-methyl-1′,1′-dioxido-7′-(2-(piperidin-1-yl)ethoxy)spiro[cyclopropane-1,4′-pyrido[2,3-b][1,4,5]oxathiazepin]-2′(3′H)-yl)methyl)pyridin-2-yl)propanoic Acid]	615	
Cc1cnc2c(c1)S(=O)(=O)N(Cc1cc(C(CC(=O)O)c3ccn4c(C(F)F)nnc4c3C)ccc1C)C[C@H]1CCCCN21 (stereo in doubt) [Example 502, 3-(3-(Difluoromethyl)-8-methyl-[1,2,4]triazolo[4,3-a]pyridin-7-yl)-3-(4-methyl-3-(((*R)-3-methyl-5,5-dioxido-7,7a,8,9,10,11-hexahydro-6H-dipyrido[2,1-d:2′,3′-f][1,2,5]thiadiazepin-6-yl)methyl)phenyl)propanoic Acid]	3.92	
Cc1cnc2c(c1)S(=O)(=O)N(Cc1cc([C@H](CC(=O)O)c3ccn4c(C(F)F)nnc4c3C)ccc1C)C[C@@H]1CCCCN21 (stereo in doubt) [Example 500, (*S)-3-(3-(Difluoromethyl)-8-methyl-[1,2,4]triazolo[4,3-a]pyridin-7-yl)-3-(4-methyl-3-(((*S)-3-methyl-5,5-dioxido-7,7a,8,9,10,11-hexahydro-6H-dipyrido[2,1-d:2′,3′-f][1,2,5]thiadiazepin-6-yl)methyl)phenyl)propanoic Acid]	6.55	
CCn1nnc2c(C)c(C(CC(=O)O)c3ccc(C)c(CN4C[C@H]5COCCN5c5ncccc5S4(=O)=O)c3)ccc21 (mixture of isomers) [Example 135, (R/S)-3-(3-(((*S)-5,5-Dioxido-7a,8,10,11-tetrahydro-[1,4]oxazino[3,4-d]pyrido[2,3-f][1,2,5]thiadiazepin-6(7H)-yl)methyl)-4-methylphenyl)-3-(1-ethyl-4-methyl-1H-benzo[d][1,2,3]triazol-5-yl)propanoic Acid]	24	
Cc1ccc([C@H](CC(=O)O)c2ccn3c(C(F)(F)F)nnc3c2C)cc1CN1CC2(CCOCC2)Oc2ncc(F)cc2S1(=O)=O (single isomer, unassigned) [Example 414, (*S)-3-(3-((8′-fluoro-1′,1′-dioxido-2,3,5,6-tetrahydrospiro[pyran-4,4′-pyrido[2,3-b][1,4,5]oxathiazepin]-2′(3′H)-yl)methyl)-4-methylphenyl)-3-(8-methyl-3-(trifluoromethyl)-[1,2,4]triazolo[4,3-a]pyridin-7-yl)propanoic Acid]	11	
CCn1nnc2c(C)c([C@@H](CC(=O)O)c3ccc(C)c(CN4C[C@@H]5CCCN5c5ccccc5S4(=O)=O)c3)ccc21 (relative stereo) [Example 148, (*S)-3-[3-[(5,5-Dioxo-7a,8,9,10-tetrahydro-7H-pyrrolo[2,1-d][1,2,5]benzothiadiazepin-6-yl)methyl]-4-methyl-phenyl]-3-(1-ethyl-4-methyl-benzotriazol-5-yl)propanoic Acid]	15	
Cc1cc2cc([C@H](c3ccc(C)c(CN4CC5(CCOCC5)Oc5nc(OCCN6CCCCC6)c(C)cc5S4(=O)=O)c3)C(C)(C)C(=O)O)n(C)c2nn1 (single isomer, unassigned) [Example 349, (*R)-3-(3,7-Dimethyl-7H-pyrrolo[2,3-c]pyridazine-6-yl)-2,2-dimethyl-3-(4-methyl-3-((8′-methyl-1′,1′-dioxido-7′-(2-(piperidine-1-yl)-ethoxy)2,3,5,6-tetrahydrospiro[pyran-4,4′-pyrido[2,3-b][1,4,5]oxathiazepin]-2′,(3′H)-yl)methyl)phenyl)propanoic Acid]	1540	
Cc1ccc([C@H](CC(=O)O)c2ccn3c(C(F)(F)F)nnc3c2C)cc1CN1C[C@@H]2CCCCN2c2ncc(C(F)(F)F)cc2S1(=O)=O (relative stereo) [Example 198, (*S)-3-(3-(((*S)-5,5-Dioxido-3-(trifluoromethyl)-7,7a,8,9,10,11-hexahydro-6H-dipyrido[2,1-d:2′,3′-f][1,2,5]thiadiazepin-6-yl)methyl)-4-methylphenyl)-3-(8-methyl-3-(trifluoromethyl)-[1,2,4]triazolo[4,3-a]pyridin-7-yl)propanoic Acid]	5.3	
Cc1ccc([C@H](CC(=O)O)c2ccn3c(C(F)(F)F)nnc3c2C)cc1CN1C[C@@H]2COCCN2c2ncccc2S1(=O)=O (relative stereo) [Example 276, (*S)-3-(3-(((*R)-5,5-Dioxido-7a,8,10,11-tetrahydro-[1,4]oxazino[3,4-d]pyrido[2,3-f][1,2,5]thiadiazepin-6(7H)-yl)methyl)-4-methylphenyl)-3-(8-methyl-3-(trifluoromethyl)-[1,2,4]triazolo[4,3-a]pyridin-7-yl)propanoic Acid]		112
